Data from the supplement of paper PMC10307832.

How the values were obtained:
[1] = compound: Cc1ccc2nc(NCCN)c3ncc(C)n3c2c1 + CCNC(=O)c1noc(-c2cc(C(C)C)c(O)cc2O)c1-c1ccc(CN2CCOCC2)cc1 [Luminespib] (partner 0.01 µM); experiment: relative viability (nuclei count vs DMSO), 5 days (fraction); higher = more cells survive
Method in brief: (§1)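 Lung cancer cell lines were pin-tool dosed in 1536-well plates on the day after seeding, with either a lone drug or a fixed anchor-drug dose plus five library-drug doses (not always all listed) in √10 steps. Nuclei were counted on 4× images after 5 days. Relative viability is the ratio of treated-well to vehicle-well nuclei counts, with each value a median of duplicate plates.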

[2] = compound: Cc1ccc2nc(NCCN)c3ncc(C)n3c2c1 + Cc1nc(Nc2ncc(C(=O)Nc3c(C)cccc3Cl)s2)cc(N2CCN(CCO)CC2)n1 [Dasatinib] (partner 0.075 µM); experiment: as above
Method in brief: as §1

Row | Cell Line | relative viability ([1]; first compound 0.04 µM) | relative viability ([1]; first compound 0.1265 µM) | relative viability ([1]; first compound 0.4 µM) | relative viability ([1]; first compound 1.265 µM) | relative viability ([1]; first compound 4 µM) | relative viability ([2]; first compound 0.04 µM) | relative viability ([2]; first compound 0.1265 µM) | relative viability ([2]; first compound 0.4 µM) | relative viability ([2]; first compound 1.265 µM) | relative viability ([2]; first compound 4 µM)
1 | NCI-H522 | 1.26 | 1.12 | 1.04 | 1.14 | 1.17 | 0.882 | 0.966 | 0.827 | 0.806 | 0.842
2 | HCC-15 | 0.463 | 0.239 | 0.258 | 0.373 | 0.16 | 0.703 | 0.666 | 0.646 | 0.575 | 0.391
3 | A-427 | 1.1 | 0.784 | 0.993 | 1.02 | 0.846 | 0.682 | 0.654 | 0.644 | 0.632 | 0.628
4 | NCI-H2228 | 0.147 | 0.149 | 0.181 | 0.145 | 0.149 | 0.496 | 0.456 | 0.455 | 0.505 | 0.377
5 | NCI-H1734 | 0.217 | 0.251 | 0.197 | 0.184 | 0.176 | 0.515 | 0.456 | 0.474 | 0.447 | 0.409
6 | PC-14 | 0.135 | 0.114 | 0.179 | 0.151 | 0.18 | 0.285 | 0.276 | 0.299 | 0.206 | 0.0944
7 | NCI-H1915 | 0.721 | 0.783 | – | 0.598 | 0.636 | 0.334 | 0.328 | – | 0.291 | 0.25
8 | NCI-H1666 | 0.963 | 0.994 | 1.07 | 0.915 | 1.01 | 0.788 | 0.781 | 0.849 | 0.604 | 0.77
9 | HCC-366 | – | – | – | – | – | 0.561 | 0.685 | 0.672 | 0.579 | 0.629
10 | NCI-H2170 | 0.637 | 0.699 | 0.516 | 0.855 | 0.64 | 0.565 | 0.646 | 0.58 | 0.58 | 0.564
11 | SW 1573 | 0.287 | 0.185 | 0.204 | 0.151 | 0.106 | 0.576 | 0.534 | 0.468 | 0.48 | 0.244
12 | NCI-H661 | 0.932 | 0.94 | 0.929 | 0.98 | 0.8 | 0.927 | 0.943 | 0.88 | 0.835 | 0.748
13 | PC-3 [JPC-3] | 0.733 | 0.71 | 0.672 | 0.671 | 0.628 | 1.11 | 0.995 | 0.857 | 1.01 | 0.932
14 | NCI-H2342 | 0.797 | 0.638 | 0.616 | 0.719 | 0.677 | 0.363 | 0.363 | 0.328 | 0.284 | 0.313
15 | LC-2-ad | 0.891 | 0.947 | 1.13 | 1.04 | 0.798 | 0.701 | 0.582 | 0.497 | 0.592 | 0.324
16 | CAL-12T | 0.642 | 0.522 | 0.715 | 0.534 | 0.214 | 0.34 | 0.342 | 0.373 | 0.387 | 0.294
17 | RERF-LC-KJ | 1.13 | 1.14 | 1.26 | 1.17 | 0.715 | 0.873 | 0.698 | 0.757 | 0.748 | 0.503
18 | NCI-H1650 | 0.242 | 0.213 | 0.195 | 0.214 | 0.212 | 0.33 | 0.312 | 0.273 | 0.282 | 0.226
19 | BEN | 0.337 | 0.295 | 0.425 | 0.179 | 0.688 | 0.329 | 0.291 | 0.27 | 0.363 | 0.374
20 | EMC-BAC-2 | 1.21 | 1.2 | 1.19 | 1.2 | 1.13 | 0.339 | 0.335 | 0.345 | 0.276 | 0.307
21 | LU99A | 0.274 | 0.28 | 0.242 | 0.254 | 0.261 | 0.58 | 0.605 | 0.622 | 0.54 | 0.544
22 | ABC-1 | 0.507 | 0.719 | – | 0.52 | 0.41 | 0.613 | 0.573 | 0.501 | 0.57 | 0.594
23 | NCI-H1793 | 0.577 | 0.168 | 0.182 | 0.181 | 0.215 | 0.386 | 0.417 | 0.389 | 0.332 | 0.384
24 | NCI-H2347 | 1.14 | 1.3 | 0.362 | 0.248 | 0.356 | 0.32 | 0.333 | 0.355 | 0.266 | 0.317
25 | NCI-H1993 | 1.01 | 0.944 | 0.902 | 0.887 | 0.859 | 0.463 | 0.651 | 0.533 | 0.497 | 0.539
26 | NCI-H322M | 0.908 | 0.845 | 0.961 | 0.858 | 0.734 | 0.251 | 0.267 | 0.259 | 0.269 | 0.263
27 | NCI-H838 | 0.362 | 0.344 | 0.324 | 0.3 | 0.258 | 0.347 | 0.336 | 0.251 | 0.231 | 0.261
28 | HARA | 0.822 | 0.753 | 0.622 | 0.681 | 0.681 | 0.295 | 0.282 | 0.313 | 0.243 | 0.255
29 | HCC-44 | 1.07 | 1.04 | 1.06 | 1.05 | 0.591 | – | – | – | – | –
30 | HCC-78 | – | – | – | – | – | 0.425 | 0.496 | 0.364 | 0.354 | 0.303
